Test results taken from ChEMBL document CHEMBL4196011, “The lead optimization of the polyamine conjugate of flavonoid with a naphthalene motif: Synthesis and biological evaluation” (Eur J Med Chem, 2018).
Activity calls are given as the source filed them. No cut-off for these calls is given here.

Experiments:
HepG2 [1] = assay: Induction of apoptosis in human HepG2 cells assessed as early apoptotic cells at 2.5 uM after 8 hrs by Annexin V-FITC/propidium iodide staining-based flow cytometry (reference value: 1.29%); assay type: functional
HepG2 [2] = assay: Induction of apoptosis in human HepG2 cells assessed as necrotic cells at 5 uM after 8 hrs by Annexin V-FITC/propidium iodide staining-based flow cytometry (reference value: 0.40%); assay type: functional
HepG2 [3] = assay: Induction of apoptosis in human HepG2 cells assessed as necrotic cells at 7.5 uM after 24 hrs by Annexin V-FITC/propidium iodide staining-based flow cytometry (reference value: 0.12%); assay type: functional
H22 = assay: Antitumor activity against […] xenografted in Kunming mouse assessed as tumor growth inhibition at 30 mg/kg, iv for 7 consecutive days measured on day 16; assay type: functional; conditions: 384 h, read-out: TGI
HepG2 [4] = assay: Induction of apoptosis in human HepG2 cells assessed as necrotic cells at 7.5 uM after 48 hrs by Annexin V-FITC/propidium iodide staining-based flow cytometry (reference value: 0.08%); assay type: functional
HepG2 [5] = assay: Induction of apoptosis in human HepG2 cells assessed as late apoptotic cells at 2.5 uM after 48 hrs by Annexin V-FITC/propidium iodide staining-based flow cytometry (reference value: 0.95%); assay type: functional
HepG2 [6] = assay: Induction of apoptosis in human HepG2 cells assessed as decrease in nuclear volume after 48 hrs by Hoechst 33342 staining-based assay; assay type: functional, cell-based
HepG2 [7] = assay: Induction of autophagy in human HepG2 cells assessed as increase in LC3-2 expression at 5 uM by Western blot analysis; assay type: functional, cell-based
HepG2 [8] = assay: Induction of apoptosis in human HepG2 cells assessed as late apoptotic cells at 2.5 uM after 8 hrs by Annexin V-FITC/propidium iodide staining-based flow cytometry (reference value: 0.88%); assay type: functional
Mus musculus = assay: Toxicity in Kunming mouse xenografted with […] H22 cells assessed as effect on kidney weight index at 30 mg/kg, iv administered for 7 consecutive days; assay type: organism-based; conditions: in vivo
K562 = assay: Antiproliferative activity against human K562 cells after 48 hrs by MTT assay; assay type: functional, cell-based; conditions: K562, 48 h
[9] = Drug uptake in human HepG2 cells assessed as PAT-mediated compound uptake at 10 uM after 8 hrs in presence of spermidine by HCS analysis; assay type: ADME, cell-based; conditions: hepg2, 8 h
HepG2 [10] = assay: Induction of apoptosis in human HepG2 cells assessed as late apoptotic cells at 7.5 uM after 8 hrs by Annexin V-FITC/propidium iodide staining-based flow cytometry (reference value: 0.88%); assay type: functional
HepG2 [11] = assay: Induction of apoptosis in human HepG2 cells assessed as necrotic cells at 5 uM after 36 hrs by Annexin V-FITC/propidium iodide staining-based flow cytometry (reference value: 0.24%); assay type: functional
HepG2 [12] = assay: Induction of apoptosis in human HepG2 cells assessed as necrotic cells at 2.5 uM after 36 hrs by Annexin V-FITC/propidium iodide staining-based flow cytometry (reference value: 0.24%); assay type: functional
HepG2 [13] = assay: Induction of apoptosis in human HepG2 cells assessed as early apoptotic cells at 7.5 uM after 8 hrs by Annexin V-FITC/propidium iodide staining-based flow cytometry (reference value: 1.29%); assay type: functional
HepG2 [14] = assay: Induction of apoptosis in human HepG2 cells assessed as early apoptotic cells at 7.5 uM after 36 hrs by Annexin V-FITC/propidium iodide staining-based flow cytometry (reference value: 2.08%); assay type: functional
HepG2 [15] = assay: Induction of autophagy in human HepG2 cells assessed as formation of autolysosomes after 48 hrs by MDC staining-based assay; assay type: functional, cell-based
[16] = Toxicity in iv dosed Kunming mouse assessed as maximum tolerated dose administered for 7 consecutive days; assay type: organism-based; conditions: in vivo

For `COc1ccc2cc(-c3oc4c(CNCCCCN)cccc4c(=O)c3OC)ccc2c1Br.Cl.Cl`, the Activity (HepG2 [1]) was 2.06%, the Activity (HepG2 [2]) was 0.03% and the Activity (HepG2 [3]) was 4.51%. It also gave an inhibition in vivo at 30 mg/kg (H22) of 63.6%, an Activity (HepG2 [4]) of 0.17% and an Activity (HepG2 [5]) of 3.85%. For the same compound, the Activity (HepG2 [6]) was “Dose-dependent effect”, the Activity (HepG2 [7]) was “Active” and the Activity (HepG2 [8]) was 1.52%. The Activity (Mus musculus) was “Non-Toxic”, the IC50 (K562) was 13.4 µM and the Drug uptake [9] was “Not Active”. For the same compound, the Activity (HepG2 [10]) was 3.38%, the Activity (HepG2 [11]) was 0.09% and the Activity (HepG2 [12]) was 3.9%. For the same compound, the Activity (HepG2 [13]) was 18.1%, the Activity (HepG2 [14]) was 28.78% and the Activity (HepG2 [15]) was “Dose-dependent effect”. It also gave an MTD at 7 days [16] of 50 mg/kg.
